Reference: ChEMBL document CHEMBL5046270, “A Selective and Orally Bioavailable Quinoline-6-Carbonitrile-Based Inhibitor of CDK8/19 Mediator Kinase with Tumor-Enriched Pharmacokinetics” (J Med Chem, 2022)
The source made the active and inactive calls. No cut-off for these calls is given here.

How the values were obtained:
CDK8/Cyclin C = CDK8/Cyclin C (Homo sapiens, UniProt P49336); assay: Inhibition of kinase tracer 236 binding to His tagged recombinant human CDK8/cyclin C incubated for 60 min FRET based LanthaScreen Eu-Kinase binding assay; format: protein-complex assay
Chain of CDK8/Cyclin C (P49336 whole entry): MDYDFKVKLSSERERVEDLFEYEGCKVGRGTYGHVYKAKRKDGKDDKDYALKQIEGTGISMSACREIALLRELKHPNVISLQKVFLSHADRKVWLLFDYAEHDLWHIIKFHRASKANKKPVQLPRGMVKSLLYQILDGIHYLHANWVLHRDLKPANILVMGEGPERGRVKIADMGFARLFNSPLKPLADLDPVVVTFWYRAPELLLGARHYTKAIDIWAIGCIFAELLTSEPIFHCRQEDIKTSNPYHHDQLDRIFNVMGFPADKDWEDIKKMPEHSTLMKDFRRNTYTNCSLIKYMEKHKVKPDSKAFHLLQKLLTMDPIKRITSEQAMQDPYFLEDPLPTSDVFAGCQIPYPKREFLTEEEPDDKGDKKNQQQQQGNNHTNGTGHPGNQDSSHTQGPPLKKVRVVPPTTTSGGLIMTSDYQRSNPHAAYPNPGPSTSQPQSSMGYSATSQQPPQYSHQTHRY
Chain of CDK8/Cyclin C (P24863 whole entry, further chain): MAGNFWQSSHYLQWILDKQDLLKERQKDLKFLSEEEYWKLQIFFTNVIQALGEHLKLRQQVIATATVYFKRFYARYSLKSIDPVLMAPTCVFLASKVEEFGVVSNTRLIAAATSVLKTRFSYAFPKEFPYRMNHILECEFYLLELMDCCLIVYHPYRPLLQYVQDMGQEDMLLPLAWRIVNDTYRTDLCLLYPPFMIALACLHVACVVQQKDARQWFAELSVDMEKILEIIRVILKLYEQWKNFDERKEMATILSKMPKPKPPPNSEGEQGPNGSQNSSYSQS

[1] = Inhibition of NF kappa B dependent CDK8/CDK19 in HEK293 cell incubated for 3 hrs in presence of TNF-alpha by Spectra max microtitre plate reader; format: cell-based; settings: Homo sapiens, HEK293, 3 h
[2] = target: T1, Serine/threonine-protein kinase haspin (Homo sapiens) (UniProt Q8TF76); assay: Inhibition of human HASPIN at 2 uM by competition binding assay relative to control; settings: values are per cent of control
T1 sequence (whole entry): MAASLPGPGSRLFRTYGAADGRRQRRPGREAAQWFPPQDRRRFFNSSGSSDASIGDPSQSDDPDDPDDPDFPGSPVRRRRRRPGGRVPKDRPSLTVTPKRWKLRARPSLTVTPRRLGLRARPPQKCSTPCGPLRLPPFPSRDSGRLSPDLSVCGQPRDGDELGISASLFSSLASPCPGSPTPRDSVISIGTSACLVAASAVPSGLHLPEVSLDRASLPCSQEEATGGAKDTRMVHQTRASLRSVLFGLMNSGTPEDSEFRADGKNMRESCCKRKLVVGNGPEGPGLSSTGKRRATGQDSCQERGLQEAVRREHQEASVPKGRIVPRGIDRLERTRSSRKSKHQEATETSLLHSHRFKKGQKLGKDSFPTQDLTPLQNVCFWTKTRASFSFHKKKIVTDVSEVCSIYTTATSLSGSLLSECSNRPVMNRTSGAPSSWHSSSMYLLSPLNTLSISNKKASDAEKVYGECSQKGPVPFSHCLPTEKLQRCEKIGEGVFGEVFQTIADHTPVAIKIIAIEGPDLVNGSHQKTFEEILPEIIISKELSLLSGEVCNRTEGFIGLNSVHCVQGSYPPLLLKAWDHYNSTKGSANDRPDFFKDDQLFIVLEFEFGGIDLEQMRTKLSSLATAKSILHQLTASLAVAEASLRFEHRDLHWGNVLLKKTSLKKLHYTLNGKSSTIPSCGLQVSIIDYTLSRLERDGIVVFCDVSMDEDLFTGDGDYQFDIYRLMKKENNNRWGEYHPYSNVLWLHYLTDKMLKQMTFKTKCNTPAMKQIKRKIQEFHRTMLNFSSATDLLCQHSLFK

[3] = target: T2, CDK8/Cyclin C (Homo sapiens) (UniProt P49336+P24863); assay: Binding affinity to kinase tracer 236 binding to His tagged recombinant human CDK8/cyclinC assessed as rate constant (koff) by TR FRET based assay; format: protein-complex assay
[4] = target: T3, Cyclin-C/Cyclin-dependent kinase 19 (Homo sapiens) (UniProt Q9BWU1+P24863); assay: Binding affinity to recombinant human CDK19/cyclinC assessed as mean residence time by TR FRET based assay; format: protein-complex assay
[5] = target: T2, CDK8/Cyclin C (Homo sapiens); assay: Binding affinity to kinase tracer 236 binding to His tagged recombinant human CDK8/cyclinC assessed as half life by TR FRET based assay; format: protein-complex assay
[6] = target: T3, Cyclin-C/Cyclin-dependent kinase 19 (Homo sapiens); assay: Binding affinity to recombinant human CDK19/cyclinC assessed as half life by TR FRET based assay; format: protein-complex assay
HEK293 = assay: Inhibition of TNFalpha induced CDK8/19 dependent NF kappa B activity CDK8/19 in double knockout HEK293 cell for 3 hrs by qt-PCR analysis; format: functional, cell-based; settings: Homo sapiens
[7] = Downregulation of CDK8/19 in HEK293 cells assessed as mRNA expression level in KCTD12 gene at 1 uM for 3 hrs pretreatment and measured after 24 hr post wash-off by qt-PCR analysis; format: functional; settings: Homo sapiens, time 27 hrs
[8] = Elimination rate constant in tumor of BALB/c mouse xenografted with mouse CT26 cells at 2.5 mg/kg, iv by LC-MS/MS analysis; format: ADME, organism-based, Neoplasm
[9] = Half life in tumor of BALB/c mouse xenografted with mouse CT26 cells at 2.5 mg/kg, iv by LC-MS/MS analysis; format: ADME, organism-based, Neoplasm
[10] = Tmax in tumor of BALB/c mouse xenografted with mouse CT26 cells at 2.5 mg/kg, iv by LC-MS/MS analysis; format: ADME, organism-based, Neoplasm
[11] = AUC (0-24hrs) in tumor of BALB/c mouse xenografted with mouse CT26 cells at 2.5 mg/kg, iv by LC-MS/MS analysis; format: ADME, organism-based, Neoplasm; parameters: time < 24 hr, route intravenous, dose 2.5 mg/kg
[12] = Half life in plasma of BALB/c mouse xenografted with mouse CT26 cells at 100 mg/kg, po by LC-MS/MS analysis; format: ADME, organism-based
[13] = AUC(0-24h) in plasma of BALB/c mouse xenografted with mouse CT26 cells at 100 mg/kg, po by LC-MS/MS analysis; format: ADME, organism-based; parameters: time < 24 hr, route oral, dose 100 mg/kg; settings: in vivo
[14] = Oral bioavailability in plasma of BALB/c mouse xenografted with mouse CT26 cells at 100 mg/kg by LC-MS/MS; format: ADME, organism-based
[15] = Oral bioavailability in tumor of BALB/c mouse xenografted with mouse CT26 cells at 100 mg/kg by LC-MS/MS; format: ADME, organism-based, Neoplasm
CT26 [16] = assay: Downregulation of CCL12 gene expression in BALB/c mouse xenografted with mouse CT26 cells at 100 mg/kg, po 2 to 12 hrs […]; format: functional, organism-based; settings: time 2-12 hrs, TDE = time-dependent effect
CT26 [17] = assay: Downregulation of KLF2 gene expression in BALB/c mouse xenografted with mouse CT26 cells at 100 mg/kg, po 2 to 12 hrs […]; format: functional, organism-based; settings: time 2-12 hrs, TDE = time-dependent effect
[18] = Drug accumulation in lung of BALB/c mouse bearing CT26 tumor model at 100 mg/kg, po for 7 days by LC-MS/MS analysis; format: ADME, organism-based; settings: in vivo, 168 h, time 7 day
[19] = Drug accumulation in liver of BALB/c mouse bearing CT26 tumor model at 100 mg/kg, po for 7 days by LC-MS/MS analysis; format: ADME, organism-based; settings: in vivo, 168 h, time 7 day
[20] = Half life in plasma of BALB/c mouse xenografted with mouse CT26 cells at 2.5 mg/kg, iv by LC-MS/MS analysis; format: ADME, organism-based
[21] = AUC (0-24hrs) in plasma of BALB/c mouse xenografted with mouse CT26 cells at 2.5 mg/kg, iv by LC-MS/MS analysis; format: ADME, organism-based; parameters: time < 24 hr, route intravenous, dose 2.5 mg/kg; settings: in vivo
[22] = Elimination rate constant in tumor of BALB/c mouse xenografted with mouse CT26 cells at 100 mg/kg, po by LC-MS/MS analysis; format: ADME, organism-based, Neoplasm
[23] = Half life in tumor of BALB/c mouse xenografted with mouse CT26 cells at 100 mg/kg, po by LC-MS/MS analysis; format: ADME, organism-based, Neoplasm
[24] = Tmax in tumor of BALB/c mouse xenografted with mouse CT26 cells at 100 mg/kg, po by LC-MS/MS analysis; format: ADME, organism-based, Neoplasm
[25] = AUC (0-24hrs) in tumor of BALB/c mouse xenografted with mouse CT26 cells at 100 mg/kg, po by LC-MS/MS analysis; format: ADME, organism-based, Neoplasm; parameters: time < 24 hr, route oral, dose 100 mg/kg
[26] = target: Cyclin-dependent kinase 8 (Homo sapiens) (UniProt P49336); assay: Inhibition of human CDK8 at 2 uM by competition binding assay relative to control; values are per cent of control
Chain of Cyclin-dependent kinase 8 (Homo sapiens) (P49336 whole entry): as the sequence (P49336 whole entry) above

CN1CCN(C(=O)c2ccc3cc(CCNc4ccnc5ccc(C#N)cc45)ccc3c2)CC1
IC50 (CDK8/Cyclin C): 3.6 nM
IC50 [1]: 56 nM
residual binding, % of control [2]: 29%
K [3]: 0.00122 s⁻¹
MRT [4]: 4.25 min
T1/2 [5]: 9.45 min
T1/2 [6]: 4.25 min
Activity (HEK293): inactive
inhibition at 1 µM [7]: 30%
k el [8]: 1.67e-05 s⁻¹
half-life [9]: 726 min
Tmax [10]: 34.8 min
AUC(0-t) at 24 h [11]: 6410 ng·h/mL
half-life [12]: 212 min
AUC [13]: 2182 ng·h/mL
bioavailability [14]: 16.5%
bioavailability [15]: 34.6%
Activity (CT26 [16]): Tde
Activity (CT26 [17]): Tde
Drug uptake [18]: Active
Drug uptake [19]: Active
half-life [20]: 45 min
AUC [21]: 331 ng·h/mL
k el [22]: 2.78e-05 s⁻¹
half-life [23]: 436 min
Tmax [24]: 12 h
AUC(0-t) at 24 h [25]: 88600 ng·h/mL
residual activity [26]: 1%
